≈ marks a conversion by molar mass, not a printed value. Where two headings read alike, the source gives them in different places.
How the values were obtained:
A. calcoaceticus No. 4 = test: in vitro antibacterial activity, agar plate dilution method (MIC); assay type: cell-based, Acinetobacter calcoaceticus; details: Acinetobacter calcoaceticus, NO.4, 16 h, read-out: Minimum Inhibitory Concentration (MIC), A. calcoaceticus No. 4; 10^6 CFU/ml
How it was run: (§1)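 Agar plate dilution on Mueller Hinton agar containing graded compound levels, inoculated at 10^6 CFU/ml from overnight Mueller Hinton broth cultures. MIC (μg/ml) read after 16 h at 37°C.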

P. vulgaris HX-19 = test: as above; assay type: cell-based; details: Proteus vulgaris, HX19, 16 h, read-out: Minimum Inhibitory Concentration (MIC)
How it was run: as §1

K. pneumoniae PCI-602 = test: as above; assay type: cell-based; details: Klebsiella pneumoniae, PCI602, 16 h, 10^6 CFU/ml
How it was run: as §1

P. vulgaris No. 33 = test: as above; assay type: cell-based; details: Proteus vulgaris, NO.33, 16 h, read-out: Minimum Inhibitory Concentration (MIC), *P. vulgaris No. 33, lactamase-producing strain; 10^6 CFU/ml
How it was run: as §1

K. oxytoca GN10650 = test: as above; assay type: cell-based; details: Klebsiella oxytoca, GN10650, 16 h, read-out: Minimum Inhibitory Concentration (MIC), *K. oxytoca GN10650, lactamase-producing strain; 10^6 CFU/ml
How it was run: as §1

E. coli NIHJ JC2 = test: as above; assay type: cell-based; details: Escherichia coli, NIHJJC2, 16 h, read-out: Minimum Inhibitory Concentration (MIC), E. coli NIHJ JC2, 10^6 CFU/ml, 37° C.
How it was run: as §1

K. pneumoniae No. 42 = test: as above; assay type: cell-based; details: Klebsiella pneumoniae, NO.42, 16 h, read-out: Minimum Inhibitory Concentration (MIC), *K. pneumoniae No. 42, lactamase-producing strain; 10^6 CFU/ml
How it was run: as §1

S. aureus 209P NIHJ-JC1 = test: as above; assay type: cell-based; details: Staphylococcus aureus, 16 h, read-out: Minimum Inhibitory Concentration (MIC)
How it was run: as §1

E. cloacae Nek 39 = test: as above; assay type: cell-based; details: Enterobacter cloacae, NEK39, 16 h, read-out: Minimum Inhibitory Concentration (MIC), *E. cloacae Nek 39, lactamase-producing strain; 10^6 CFU/ml
How it was run: as §1

S. marcescens No. 16-2 = test: as above; assay type: cell-based; details: Serratia marcescens, NO.162, 16 h, read-out: Minimum Inhibitory Concentration (MIC)
How it was run: as §1

E. cloacae 963 = test: as above; assay type: cell-based; details: 10^6 CFU/ml
How it was run: as §1

E. coli GN5482 = test: as above; assay type: cell-based; details: Escherichia coli, GN5482, 16 h, read-out: Minimum Inhibitory Concentration (MIC)
How it was run: as §1

M. morganii GN5407 = test: as above; assay type: cell-based; details: Morganella morganii, GN5407, 16 h, read-out: Minimum Inhibitory Concentration (MIC), *M. morganii GN5407, lactamase-producing strain; 10^6 CFU/ml
How it was run: as §1

S. marcescens IAM 1184 = test: as above; assay type: cell-based; details: Serratia marcescens, IAM1184, 16 h, S. marcescens IAM 1184; 10^6 CFU/ml; read-out: Minimum Inhibitory Concentration (MIC)
How it was run: as §1

Ps. aeruginosa IF03445 = test: as above; assay type: cell-based, Pseudomonas aeruginosa; details: Pseudomonas aeruginosa, IF03445, 16 h, read-out: Minimum Inhibitory Concentration (MIC), Ps. aeruginosa IF03445; 10^6 CFU/ml
How it was run: as §1

Ps. aeruginosa AKR17 = test: as above; assay type: cell-based, Pseudomonas aeruginosa; details: Pseudomonas aeruginosa, read-out: Minimum Inhibitory Concentration (MIC)
How it was run: as §1

Ps. aeruginosa AK 109 = test: as above; assay type: cell-based, Pseudomonas aeruginosa; details: Pseudomonas aeruginosa, AK109, 16 h
How it was run: as §1

E. coli CSH2 (RK1) = test: microbe, parasite or virus in culture; assay type: cell-based; details: Escherichia coli, 16 h, read-out: Minimum Inhibitory Concentration (MIC), *E. coli CSH2 (RK1), lactamase-producing strain; 10^6 CFU/ml
How it was run: as §1

E. coli CSH(RE45) = test: microbe, parasite or virus in culture; assay type: cell-based; details: Escherichia coli, 16 h, read-out: Minimum Inhibitory Concentration (MIC), *E. coli CSH(RE45), lactamase-producing strain; 10^6 CFU/ml
How it was run: as §1

Ps. cepacia 23 = test: in vitro antibacterial activity, agar plate dilution method (MIC); assay type: cell-based, Pseudomonas cepacia; details: Burkholderia cepacia, 16 h; Ps. cepacia 23; 10^6 CFU/ml; read-out: Minimum Inhibitory Concentration (MIC)
How it was run: as §1

SMILES | MIC (A. calcoaceticus No. 4) | MIC (P. vulgaris No. 33) | MIC (K. oxytoca GN10650) | MIC (E. coli NIHJ JC2) | MIC (K. pneumoniae No. 42) | MIC (E. cloacae Nek 39) | MIC (S. marcescens No. 16-2) | MIC (E. coli GN5482) | MIC (M. morganii GN5407) | MIC (S. marcescens IAM 1184) | MIC (Ps. aeruginosa IF03445) | MIC (E. coli CSH2 (RK1)) | MIC (E. coli CSH(RE45)) | MIC (Ps. cepacia 23) | other results
Nc1nc(C(=NOC2(C(=O)O)CC2)C(=O)NC2C(=O)N3C(C(=O)O)=C(CSc4nc(-c5ccc(O)c(O)c5)c(CC(=O)O)s4)CSC23)cs1 (stereo not drawn) [Example 60 (I), trisodium 7β-[2-(2-aminothiazol-4-yl)-2-(1-carboxylate-1-cyclopropoxyimino)acetamido]-3-[4-(3,4-dihydroxyphenyl)-5-carboxylatemethylthiazol-2-yl]thiomethyl-3-cephem-4-carboxylate] | 0.78 µg/mL | 0.1 µg/mL | 0.39 µg/mL | 1.56 µg/mL | 0.39 µg/mL | 0.39 µg/mL | 3.12 µg/mL | 3.12 µg/mL | 0.39 µg/mL | 0.2 µg/mL | 1.56 µg/mL | 0.05 µg/mL | 3.12 µg/mL | 0.0125 µg/mL | MIC (P. vulgaris HX-19; P. vulgaris HX-19, 10^6 CFU/ml): 0.025 µg/mL; MIC (K. pneumoniae PCI-602; K. pneumoniae PCI-602, read-out: Minimum Inhibitory Concentration (MIC)): 0.025 µg/mL; MIC (S. aureus 209P NIHJ-JC1; S. aureus 209P NIHJ-JC1, 10^6 CFU/ml, 37° C., 16 hours): 50 µg/mL; MIC (E. cloacae 963; Enterobacter cloacae, 963, 16 h, read-out: Minimum Inhibitory Concentration (MIC), E. cloacae 963): 0.78 µg/mL; MIC (Ps. aeruginosa AKR17; AKR17, 16 h): 3.12 µg/mL; MIC (Ps. aeruginosa AK 109; read-out: Minimum Inhibitory Concentration (MIC), Ps. aeruginosa AK 109, 10^6 CFU/ml): 1.56 µg/mL
CON=C(C(=O)NC1C(=O)N2C(C(=O)O)=C(CSc3nc(C(=O)O)c(-c4ccc(O)c(O)c4)s3)CSC12)c1csc(N)n1 (stereo not shown) [Ex. 52] | 0.39 µg/mL (≈ 0.587 µM) | 0.1 µg/mL (≈ 0.15 µM) | 6.25 µg/mL (≈ 9.4 µM) | 0.39 µg/mL (≈ 0.587 µM) | 0.1 µg/mL (≈ 0.15 µM) | 0.78 µg/mL (≈ 1.17 µM) | 12.5 µg/mL (≈ 18.8 µM) | 3.12 µg/mL (≈ 4.69 µM) | 0.1 µg/mL (≈ 0.15 µM) | 0.1 µg/mL (≈ 0.15 µM) | 6.25 µg/mL (≈ 9.4 µM) | 0.0125 µg/mL (≈ 0.0188 µM) | 0.05 µg/mL (≈ 0.0752 µM) | 0.025 µg/mL (≈ 0.0376 µM) | MIC (P. vulgaris HX-19): 0.0125 µg/mL (≈ 0.0188 µM); MIC (K. pneumoniae PCI-602; read-out: Minimum Inhibitory Concentration (MIC), K. pneumoniae PCI-602): < 0.006 µg/mL; MIC (S. aureus 209P NIHJ-JC1): 12.5 µg/mL (≈ 18.8 µM); MIC (E. cloacae 963; Enterobacter cloacae, 16 h, E. cloacae 963, read-out: Minimum Inhibitory Concentration (MIC)): 0.1 µg/mL (≈ 0.15 µM); MIC (Ps. aeruginosa AKR17; 16 h, Ps. aeruginosa AKR17, 10^6 CFU/ml): > 100 µg/mL; MIC (Ps. aeruginosa AK 109; read-out: Minimum Inhibitory Concentration (MIC)): 12.5 µg/mL (≈ 18.8 µM)

Reference: US5061794A, “Cephalosporin derivatives, and antibacterial agents” (priority 1986, dated 1991)
